Measured values reported in ChEMBL document CHEMBL2380296, “Structure-based design and optimization of 2-aminothiazole-4-carboxamide as a new class of CHK1 inhibitors” (Bioorg Med Chem Lett, 2013).

Columns and labels:
[1] = Plasma concentration in rat at 10 mg/kg, po measured at 4 hrs; type: ADME, organism-based; set-up: dose 10 mg/kg, route oral
[2] = Plasma concentration in rat at 10 mg/kg, po measured at 1 hr; type: ADME, organism-based; set-up: dose 10 mg/kg, route oral
[3] = biological target: Testis-specific serine/threonine-protein kinase 2 (Homo sapiens, UniProt Q96PF2); test: Inhibition of human TSSK2
Cytochrome P450 2C9 [4] = biological target: T1, Cytochrome P450 2C9 (Homo sapiens, UniProt P11712); test: Inhibition of CYP2C9 in human liver microsomes using tolbutamide as substrate by LC-MS/MS analysis; type: ADME, Microsome
Cytochrome P450 2D6 = Cytochrome P450 2D6 (Homo sapiens, UniProt P10635); test: Inhibition of CYP2D6 in human liver microsomes using dextromethorphan as substrate by LC-MS/MS analysis; type: ADME, Microsome
[5] = Tmax in rat at 10 mg/kg, po; type: ADME, organism-based; set-up: dose 10 mg/kg, route oral; conditions: in vivo
Cytochrome P450 3A4 = Cytochrome P450 3A4 (Homo sapiens, UniProt P08684); test: Inhibition of CYP3A4 in human liver microsomes using […] as substrate by LC-MS/MS analysis; type: ADME, Microsome
[6] = biological target: Alpha-2B adrenergic receptor (Homo sapiens) (UniProt P18089); test: Inhibition of adrenergic alpha-2B receptor (unknown origin) at 1 ug/mL relative to control
[7] = biological target: Calcium/calmodulin-dependent protein kinase type IV (Homo sapiens, UniProt Q16566); test: Inhibition of human CAMK4
hERG (KCNH2) = hERG (KCNH2) (Homo sapiens, UniProt Q12809); test: Inhibition of human ERG expressed in mouse L929 cells at 10 uM by IonWorks assay relative to control; type: cell-based; conditions: mouse L929 cells expressing human ERG
[8] = biological target: Cannabinoid receptor 1 (Homo sapiens) (UniProt P21554); test: Inhibition of CB1 receptor (unknown origin) at 20 ug/mL relative to control
[9] = biological target: Insulin-like growth factor 1 receptor (Homo sapiens, UniProt P08069); test: Inhibition of human IGF1R
[10] = biological target: C-X-C chemokine receptor type 3 (Homo sapiens) (UniProt P49682); test: Inhibition of CXCR3 (unknown origin) at 2 ug/mL relative to control
[11] = biological target: D(1A) dopamine receptor (Homo sapiens) (UniProt P21728); test: Inhibition of dopamine D1 receptor (unknown origin) at 2 ug/mL relative to control
[12] = biological target: Neuropeptide Y receptor type 5 (Homo sapiens) (UniProt Q15761); test: Inhibition of NPYY5 receptor (unknown origin) at 2 ug/mL relative to control
[13] = biological target: Ribosomal protein S6 kinase alpha-3 (Homo sapiens, UniProt P51812); test: Inhibition of human RSK2
Cytochrome P450 2C9 [14] = biological target: T1, Cytochrome P450 2C9; test: Time-dependent inhibition of CYP2C9 in human liver microsomes using tolbutamide as substrate incubated for 30 mins prior to substrate addition measured after 30 mins by LC-MS/MS analysis; type: ADME, Microsome

T1 sequence (P11712 whole entry): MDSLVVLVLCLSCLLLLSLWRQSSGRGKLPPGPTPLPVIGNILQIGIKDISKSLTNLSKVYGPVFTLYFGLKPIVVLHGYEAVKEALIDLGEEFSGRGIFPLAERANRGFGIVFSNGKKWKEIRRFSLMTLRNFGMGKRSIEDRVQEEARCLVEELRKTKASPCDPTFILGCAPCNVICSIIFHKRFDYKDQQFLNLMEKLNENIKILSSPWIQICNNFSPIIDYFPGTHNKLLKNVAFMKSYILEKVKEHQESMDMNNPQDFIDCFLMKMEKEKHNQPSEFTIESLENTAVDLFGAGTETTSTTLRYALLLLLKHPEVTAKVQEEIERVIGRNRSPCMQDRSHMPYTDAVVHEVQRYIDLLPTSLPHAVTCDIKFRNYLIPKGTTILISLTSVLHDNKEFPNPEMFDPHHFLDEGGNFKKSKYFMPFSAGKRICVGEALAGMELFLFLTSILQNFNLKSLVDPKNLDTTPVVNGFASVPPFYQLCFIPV
D(1A) dopamine receptor (Homo sapiens), sequence (P21728 whole entry): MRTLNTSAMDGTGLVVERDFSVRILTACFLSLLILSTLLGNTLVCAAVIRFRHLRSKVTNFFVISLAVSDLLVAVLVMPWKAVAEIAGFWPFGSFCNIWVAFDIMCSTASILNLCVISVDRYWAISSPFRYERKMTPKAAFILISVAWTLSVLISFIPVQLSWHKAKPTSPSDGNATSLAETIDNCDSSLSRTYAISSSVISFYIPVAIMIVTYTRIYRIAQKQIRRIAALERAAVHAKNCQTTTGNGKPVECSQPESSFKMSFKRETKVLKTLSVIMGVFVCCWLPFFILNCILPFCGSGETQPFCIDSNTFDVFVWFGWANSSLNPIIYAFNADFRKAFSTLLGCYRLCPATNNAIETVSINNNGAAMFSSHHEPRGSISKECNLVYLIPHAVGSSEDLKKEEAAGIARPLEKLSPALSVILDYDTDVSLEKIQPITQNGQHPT
hERG (KCNH2), sequence (Q12809 whole entry): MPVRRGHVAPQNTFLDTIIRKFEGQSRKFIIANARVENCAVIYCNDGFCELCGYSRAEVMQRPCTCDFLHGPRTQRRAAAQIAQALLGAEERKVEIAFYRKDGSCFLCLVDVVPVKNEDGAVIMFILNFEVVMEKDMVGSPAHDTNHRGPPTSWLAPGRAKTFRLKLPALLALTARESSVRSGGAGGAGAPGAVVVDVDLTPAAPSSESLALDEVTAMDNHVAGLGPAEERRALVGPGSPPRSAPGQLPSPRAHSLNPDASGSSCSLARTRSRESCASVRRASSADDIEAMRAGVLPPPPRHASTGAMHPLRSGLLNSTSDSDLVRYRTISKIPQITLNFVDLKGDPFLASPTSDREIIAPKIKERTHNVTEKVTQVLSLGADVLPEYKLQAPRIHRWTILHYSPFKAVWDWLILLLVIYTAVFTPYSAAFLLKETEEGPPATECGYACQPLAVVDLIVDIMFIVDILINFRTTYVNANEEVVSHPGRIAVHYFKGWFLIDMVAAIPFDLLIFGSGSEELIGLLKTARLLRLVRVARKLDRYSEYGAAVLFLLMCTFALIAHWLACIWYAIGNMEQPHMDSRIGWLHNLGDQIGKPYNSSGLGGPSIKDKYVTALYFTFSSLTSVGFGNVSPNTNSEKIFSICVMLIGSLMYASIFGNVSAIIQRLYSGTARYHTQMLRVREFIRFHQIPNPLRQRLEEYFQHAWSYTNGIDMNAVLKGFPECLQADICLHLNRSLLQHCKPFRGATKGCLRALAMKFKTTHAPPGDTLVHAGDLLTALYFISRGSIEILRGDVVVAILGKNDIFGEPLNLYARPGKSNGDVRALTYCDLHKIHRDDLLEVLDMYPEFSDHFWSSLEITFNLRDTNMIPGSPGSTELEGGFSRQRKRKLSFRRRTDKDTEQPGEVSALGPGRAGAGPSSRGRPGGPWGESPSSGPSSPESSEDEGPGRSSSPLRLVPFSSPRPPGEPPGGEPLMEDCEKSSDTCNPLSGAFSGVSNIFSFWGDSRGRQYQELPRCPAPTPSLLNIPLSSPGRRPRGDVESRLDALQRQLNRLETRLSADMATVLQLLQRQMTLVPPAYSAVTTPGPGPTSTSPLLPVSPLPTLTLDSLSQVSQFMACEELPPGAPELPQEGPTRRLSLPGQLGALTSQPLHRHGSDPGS
Ribosomal protein S6 kinase alpha-3, sequence (P51812 whole entry): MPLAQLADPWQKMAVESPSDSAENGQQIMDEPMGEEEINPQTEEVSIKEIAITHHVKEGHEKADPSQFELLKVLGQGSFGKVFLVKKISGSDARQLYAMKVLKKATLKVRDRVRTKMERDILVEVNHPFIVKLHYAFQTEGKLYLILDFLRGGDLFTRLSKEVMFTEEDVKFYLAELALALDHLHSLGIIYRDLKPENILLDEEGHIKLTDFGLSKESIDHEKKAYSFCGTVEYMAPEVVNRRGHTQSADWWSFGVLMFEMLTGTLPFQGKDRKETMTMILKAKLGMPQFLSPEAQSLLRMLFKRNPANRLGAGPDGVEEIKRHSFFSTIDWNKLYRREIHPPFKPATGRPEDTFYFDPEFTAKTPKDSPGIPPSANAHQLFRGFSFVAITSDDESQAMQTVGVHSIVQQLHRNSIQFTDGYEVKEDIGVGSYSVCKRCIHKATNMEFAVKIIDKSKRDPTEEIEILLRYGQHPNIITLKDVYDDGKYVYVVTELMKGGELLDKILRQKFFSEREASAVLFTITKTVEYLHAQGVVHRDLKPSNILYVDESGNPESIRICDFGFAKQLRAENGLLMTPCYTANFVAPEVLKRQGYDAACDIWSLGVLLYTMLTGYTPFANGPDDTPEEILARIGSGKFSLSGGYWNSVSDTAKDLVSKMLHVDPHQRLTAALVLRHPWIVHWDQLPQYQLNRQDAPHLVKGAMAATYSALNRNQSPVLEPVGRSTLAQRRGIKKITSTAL
Calcium/calmodulin-dependent protein kinase type IV, sequence (Q16566 whole entry): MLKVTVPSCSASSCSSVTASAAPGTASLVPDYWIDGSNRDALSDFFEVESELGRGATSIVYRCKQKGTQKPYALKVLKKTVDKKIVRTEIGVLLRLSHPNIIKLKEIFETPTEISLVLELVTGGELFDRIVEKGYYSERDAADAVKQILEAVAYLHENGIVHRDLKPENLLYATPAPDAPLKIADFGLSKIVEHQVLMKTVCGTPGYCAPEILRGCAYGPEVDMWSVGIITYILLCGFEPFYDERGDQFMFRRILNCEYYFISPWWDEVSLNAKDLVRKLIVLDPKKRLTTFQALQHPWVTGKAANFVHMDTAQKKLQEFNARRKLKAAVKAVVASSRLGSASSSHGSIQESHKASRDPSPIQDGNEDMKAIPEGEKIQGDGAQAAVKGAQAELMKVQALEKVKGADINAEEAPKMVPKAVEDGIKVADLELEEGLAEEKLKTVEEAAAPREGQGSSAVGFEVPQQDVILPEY
Alpha-2B adrenergic receptor (Homo sapiens), sequence (P18089 whole entry): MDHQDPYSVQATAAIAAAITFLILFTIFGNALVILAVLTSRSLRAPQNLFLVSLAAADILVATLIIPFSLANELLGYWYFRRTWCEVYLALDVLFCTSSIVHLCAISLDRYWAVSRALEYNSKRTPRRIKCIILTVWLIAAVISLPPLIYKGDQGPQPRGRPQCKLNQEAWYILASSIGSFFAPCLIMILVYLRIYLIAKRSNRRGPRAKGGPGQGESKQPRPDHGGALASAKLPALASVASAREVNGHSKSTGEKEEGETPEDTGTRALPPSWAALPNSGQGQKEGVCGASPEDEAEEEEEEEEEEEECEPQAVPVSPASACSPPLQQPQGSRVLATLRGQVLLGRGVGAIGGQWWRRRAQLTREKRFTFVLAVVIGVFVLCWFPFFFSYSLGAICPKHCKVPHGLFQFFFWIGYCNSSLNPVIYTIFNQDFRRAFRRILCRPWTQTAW
Neuropeptide Y receptor type 5 (Homo sapiens), sequence (Q15761 whole entry): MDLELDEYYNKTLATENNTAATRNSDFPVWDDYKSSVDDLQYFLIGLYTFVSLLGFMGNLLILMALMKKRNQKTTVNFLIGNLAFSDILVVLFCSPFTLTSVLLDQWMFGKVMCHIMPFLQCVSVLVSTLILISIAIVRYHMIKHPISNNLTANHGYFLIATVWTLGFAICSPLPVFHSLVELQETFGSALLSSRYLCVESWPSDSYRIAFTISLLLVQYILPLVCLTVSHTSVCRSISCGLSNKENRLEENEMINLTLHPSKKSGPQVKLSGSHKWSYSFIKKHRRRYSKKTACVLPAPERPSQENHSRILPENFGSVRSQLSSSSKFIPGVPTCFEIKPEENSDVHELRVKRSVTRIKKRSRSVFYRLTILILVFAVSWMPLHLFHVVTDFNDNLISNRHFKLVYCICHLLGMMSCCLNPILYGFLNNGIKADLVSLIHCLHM
Cannabinoid receptor 1 (Homo sapiens), sequence (P21554 whole entry): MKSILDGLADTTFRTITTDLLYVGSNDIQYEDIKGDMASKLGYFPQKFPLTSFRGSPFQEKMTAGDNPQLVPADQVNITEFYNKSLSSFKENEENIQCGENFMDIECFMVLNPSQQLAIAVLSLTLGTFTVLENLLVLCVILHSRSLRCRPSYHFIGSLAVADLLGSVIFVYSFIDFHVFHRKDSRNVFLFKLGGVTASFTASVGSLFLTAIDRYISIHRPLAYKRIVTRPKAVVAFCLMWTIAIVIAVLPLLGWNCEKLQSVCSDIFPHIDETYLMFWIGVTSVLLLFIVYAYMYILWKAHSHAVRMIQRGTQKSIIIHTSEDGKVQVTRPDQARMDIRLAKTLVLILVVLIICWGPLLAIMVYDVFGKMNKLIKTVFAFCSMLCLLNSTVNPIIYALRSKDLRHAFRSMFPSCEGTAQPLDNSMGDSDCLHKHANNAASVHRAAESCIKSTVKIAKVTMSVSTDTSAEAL

concentration at 4 h [1]: 183 ng/mL
concentration at 1 h [2]: 57 ng/mL
IC50 [3]: 8.9 µM
IC50 (Cytochrome P450 2C9 [4]): > 30 µM
IC50 (Cytochrome P450 2D6): > 30 µM
Tmax [5]: 6 h
IC50 (Cytochrome P450 3A4): > 30 µM
inhibition [6]: 4.2%
IC50 [7]: 26 µM
inhibition [8]: 22.6%
IC50 [9]: 30 µM
inhibition [10]: 8%
inhibition [11]: 2.8%
inhibition [12]: 13.2%
IC50 [13]: 1.3 µM
IC50 (Cytochrome P450 2C9 [14]): > 30 µM
SMILES: COc1ccc2c(c1)C(=O)N(c1nc(C(=O)Nc3cnccc3N3CCNCC3)cs1)C2
inhibition at 10 µM (hERG (KCNH2)): 42%
